The values that follow come from ChEMBL document CHEMBL1138717, “Synthesis of 8-thiabicyclo[3.2.1]oct-2-enes and their binding affinity for the dopamine and serotonin transporters” (Bioorg Med Chem Lett, 2004).

By IC50 is commonly meant the concentration at which inhibition is half-maximal.

Assay [1] deals with Sodium-dependent dopamine transporter (Homo sapiens, UniProt Q01959). As to the kind of experiment: Inhibition of [3H]WIN-35428 binding to human dopamine transporter (hDAT).
Assay [2] deals with Sodium-dependent serotonin transporter (Homo sapiens, UniProt P31645). As to the kind of experiment: Inhibition of [3H]citalopram binding to human serotonin transporter (hSERT).
Chain of Sodium-dependent serotonin transporter (P31645 whole entry): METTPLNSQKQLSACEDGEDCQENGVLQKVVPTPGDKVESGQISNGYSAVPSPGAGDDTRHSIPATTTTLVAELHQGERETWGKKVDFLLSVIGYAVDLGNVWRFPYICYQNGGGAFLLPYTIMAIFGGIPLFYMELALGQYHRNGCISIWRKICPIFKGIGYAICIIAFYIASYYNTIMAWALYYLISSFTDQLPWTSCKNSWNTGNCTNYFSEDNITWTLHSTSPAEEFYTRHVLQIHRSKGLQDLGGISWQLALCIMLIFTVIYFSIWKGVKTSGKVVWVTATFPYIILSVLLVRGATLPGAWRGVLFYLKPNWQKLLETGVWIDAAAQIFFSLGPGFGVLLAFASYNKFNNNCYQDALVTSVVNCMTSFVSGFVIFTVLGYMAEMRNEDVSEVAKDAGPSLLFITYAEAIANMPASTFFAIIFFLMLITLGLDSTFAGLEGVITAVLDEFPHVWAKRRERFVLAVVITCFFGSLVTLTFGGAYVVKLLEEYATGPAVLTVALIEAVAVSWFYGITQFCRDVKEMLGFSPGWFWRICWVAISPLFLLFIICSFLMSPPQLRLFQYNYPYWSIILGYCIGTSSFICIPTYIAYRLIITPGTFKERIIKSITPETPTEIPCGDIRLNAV
Assay [3] is described as follows: Inhibition of [3H]WIN-35428 binding to dopamine transporter (DAT).

Bounds are passed on as bounds.

Chain of Sodium-dependent dopamine transporter (Q01959 whole entry): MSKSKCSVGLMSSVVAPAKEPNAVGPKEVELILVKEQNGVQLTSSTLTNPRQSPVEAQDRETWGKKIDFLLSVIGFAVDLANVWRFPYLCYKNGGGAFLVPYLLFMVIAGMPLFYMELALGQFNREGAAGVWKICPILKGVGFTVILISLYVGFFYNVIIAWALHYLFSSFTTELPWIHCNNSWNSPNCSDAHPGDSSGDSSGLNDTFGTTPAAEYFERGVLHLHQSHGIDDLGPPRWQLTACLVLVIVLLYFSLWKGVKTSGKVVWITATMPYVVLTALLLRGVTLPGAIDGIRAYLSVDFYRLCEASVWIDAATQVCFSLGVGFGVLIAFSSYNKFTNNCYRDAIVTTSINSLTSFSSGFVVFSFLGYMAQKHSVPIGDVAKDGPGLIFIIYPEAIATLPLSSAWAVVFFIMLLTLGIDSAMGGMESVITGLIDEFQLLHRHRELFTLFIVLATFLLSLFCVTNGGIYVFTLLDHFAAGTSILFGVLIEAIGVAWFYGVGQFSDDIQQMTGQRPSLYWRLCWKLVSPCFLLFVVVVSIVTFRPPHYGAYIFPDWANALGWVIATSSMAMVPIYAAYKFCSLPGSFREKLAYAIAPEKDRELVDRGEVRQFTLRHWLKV

In assay [1], `COC(=O)C1=C(c2ccc(Cl)c(Cl)c2)CC2CCC1O2` (stereo unspecified) yielded an IC50 of 12 nM. In the case of `COC(=O)C1=C(c2ccc(Br)cc2)CC2CCC1O2` (stereo unspecified), the figures for the half-inhibitory concentration (IC50) in assay [2] and in assay [1] were greater than 30000 nM and 62 nM, respectively. The corresponding values for `COC(=O)C1=C(c2ccc(I)cc2)CC2CCC1S2` (stereo unspecified) are 8700 nM and 6.7 nM.

`COC(=O)C1=C(c2ccc(I)cc2)CC2CCC1O2` (stereo unspecified): the IC50 in assay [2] came to 4800 nM; in assay [1], 68 nM. The corresponding values for `COC(=O)C1=C(c2ccc(F)cc2)CC2CCC1S2` (stereo unspecified) are 28000 nM and 220 nM.

Regarding `COC(=O)C1=C(c2ccc(Br)cc2)CC2CCC1S2` (stereo unspecified), the IC50 in assay [2] is greater than 25000 nM; in assay [1], 9.1 nM.

For the molecule `COC(=O)C1=C(c2ccccc2)CC2CCC1S2` (stereo unspecified), the values for the IC50 in assay [2] and in assay [1] were greater than 10000 nM and 910 nM, respectively. The matching figures for `COC(=O)C1=C(c2ccc(Cl)cc2)CC2CCC1S2` (stereo unspecified): greater than 10000 nM and 13 nM. The corresponding values for `COC(=O)C1=C(c2ccc3ccccc3c2)CC2CCC1S2` (stereo unspecified) are 1300 nM and 8 nM. The matching figures for `COC(=O)C1=C(c2ccc(F)cc2)CC2CCC1O2` (stereo unspecified): greater than 50000 nM and 2730 nM.

As to `COC(=O)C1=C(c2ccc(Cl)c(Cl)c2)CC2CCC1S2` (stereo unspecified), the IC50 is 3600 nM in assay [2] and 4.5 nM in assay [1]. With `COC(=O)C1=C(c2ccccc2)CC2CCC1O2` (stereo unspecified), the IC50 in assay [2] and in assay [1] was greater than 10000 nM each time.

Consider `COC(=O)[C@H]1[C@@H](OC(=O)c2ccccc2)C[C@@H]2CC[C@H]1N2C` [COCAINE], for which, in assay [3], the IC50 came out at 100 nM. For `COC(=O)C1=C(c2ccc(Cl)cc2)CC2CCC1O2` (stereo unspecified), the IC50 in assay [2] was greater than 60000 nM; in assay [1], 238 nM.
